The target of one experiment is BRD4 (BDII_E352-M457) (Homo sapiens (Human), UniProt O60885). As to the kind of experiment: TR-FRET bromodomain binding assay, BRD4 second bromodomain. The conditions noted are these: His-tagged BD2, Alexa647-labeled probe 30 nM. As for the experimental part: (§1) A time-resolved fluorescence resonance energy transfer (TR-FRET) assay was used to determine the affinities of compounds of the Examples listed in Table 1 for each bromodomain of BRD4. His-tagged first (BD1: amino acids K57-E168) and second (BD2: amino acids E352-E168) bromodomains of BRD4 were expressed and purified. An Alexa647-labeled BET-inhibitor was used as the fluorescent probe in the assay.
(§2) Compound dilution series were prepared in DMSO via a 3-fold serial dilution from 2.5 mM to 42 nM. Compounds were then diluted 6:100 in assay buffer (20 mM Sodium Phosphate, pH 6.0, 50 mM NaCl, 1 mM Ethylenediaminetetraacetic acid disodium salt dihydrate, 0.01% Triton X-100, 1 mM DL-Dithiothreitol) to yield 3× working solutions. Six microliters (μL) of the working solution was then transferred to white, low-volume assay plates (Costar #3673). A 1.5× assay mixture containing His-tagged bromodomain, Europium-conjugated anti-His antibody (Invitrogen PV5596) and the Alexa-647-conjugated probe molecule was also prepared. Twelve μL of this solution were added to the assay plate to reach a final volume of 18 μL. The final concentration of 1× assay buffer contains 2% DMSO, 50 μM-0.85 nM compound, 8 nM His-tagged bromodomain, 1 nM Europium-conjugated anti-His-tag antibody and 100 nM or 30 nM probe (for BDI or BDII, respectively). After a one-hour incubation at room temperature, TR-FRET ratios were determined using an Envision multilabel plate reader (Ex 340, Em […]).
(§3) TR-FRET data were normalized to the means of 24 no-compound controls (“high”) and 8 controls containing 1 μM un-labeled probe (“low”). Percent inhibition was plotted as a function of compound concentration and the data were fit with the 4 parameter logistic equation to obtain IC50s. Inhibition constants (Ki) were calculated from the IC50s, probe Kd and probe concentration. Typical Z′ values were between 0.65 and 0.75. The minimum significant ratio was determined to evaluate assay reproducibility (Eastwood et al., (2006) J Biomol Screen, 11: 253-261). The MSR was determined to be 2.03 for BDI and 1.93 for BDII, and a moving MSR (last six run MSR overtime) for both BDI and BDII was typically <3.
(In TR-FRET formats the signal depends on donor and acceptor labels being close together.)

The next experiment has as its target BRD4 (BDI_K57-E168) (Homo sapiens (Human), UniProt O60885). As to the kind of experiment: TR-FRET bromodomain binding assay, BRD4 first bromodomain. The conditions noted are these: His-tagged BD1, Alexa647-labeled probe 100 nM. As to the method:
as §1, §2, §3

The structures appear in SMILES notation. Some results are limits rather than exact numbers.

In patent US9957263B2, “Bromodomain inhibitors” (AbbVie Inc., priority 2013, dated 2018) one finds Ki data, which are given here for 20 compounds.

One may read the Ki as the dissociation constant of the complex between target and ligand, obtained from inhibition or displacement. High values mean a looser hold on the target, low ones a stronger hold on the target.

For the compound `CC(=O)Nc1ccc(S(=O)(=O)N2CCC(Nc3ccc(S(C)(=O)=O)cc3-c3cn(C)c(=O)c4[nH]ccc34)CC2)cc1` [Example 103, N-{4-[(4-{[2-(6-methyl-7-oxo-6,7-dihydro-1H-pyrrolo[2,3-c]pyridin-4-yl)-4-(methylsulfonyl)phenyl]amino}piperidin-1-yl)sulfonyl]phenyl}acetamide], the Ki at BRD4 (BDII_E352-M457) worked out at 4.9 nM; at BRD4 (BDI_K57-E168), 4.1 nM.

With `Cn1cc(-c2cc(S(C)(=O)=O)ccc2N[C@H]2CC[C@H](NCc3cccs3)CC2)c2cc[nH]c2c1=O` [Example 107, 6-methyl-4-[5-(methylsulfonyl)-2-({trans-4-[(thiophen-2-ylmethyl)amino]cyclohexyl}amino)phenyl]-1,6-dihydro-7H-pyrrolo[2,3-c]pyridin-7-one], the Ki came to 8.9 nM at BRD4 (BDII_E352-M457) and 3 nM at BRD4 (BDI_K57-E168).

For the compound `CCS(=O)(=O)Nc1cc(-c2cn(C)c(=O)c3[nH]ccc23)c(Oc2ccc(F)cc2F)cc1CN1CCCC1c1ccccc1` (stereo not shown) [Example 14, N-{4-(2,4-difluorophenoxy)-5-(6-methyl-7-oxo-6,7-dihydro-1H-pyrrolo[2,3-c]pyridin-4-yl)-2-[(2-phenylpyrrolidin-1-yl)methyl]phenyl}ethanesulfonamide], the Ki on BRD4 (BDII_E352-M457) turned out to be 14 nM; on BRD4 (BDI_K57-E168), 71 nM.

Consider `Cn1cc(-c2cc(S(C)(=O)=O)ccc2Oc2cccc(C(=O)NC3CC3)c2)c2cc[nH]c2c1=O` [Example 21, N-cyclopropyl-3-[2-(6-methyl-7-oxo-6,7-dihydro-1H-pyrrolo[2,3-c]pyridin-4-yl)-4-(methylsulfonyl)phenoxy]benzamide], for which the values for the Ki on BRD4 (BDII_E352-M457) and at BRD4 (BDI_K57-E168) were 10 nM and 33 nM, respectively.

In the case of `Cn1cc(-c2cc(S(C)(=O)=O)ccc2NC2CCN(C(=O)CCN3CCOCC3)CC2)c2cc[nH]c2c1=O` [Example 99, 6-methyl-4-[5-(methylsulfonyl)-2-({1-[3-(morpholin-4-yl)propanoyl]piperidin-4-yl}amino)phenyl]-1,6-dihydro-7H-pyrrolo[2,3-c]pyridin-7-one], the Ki at BRD4 (BDII_E352-M457) came out at 28 nM; at BRD4 (BDI_K57-E168) it was 12 nM.

`Cn1cc(-c2cc(S(C)(=O)=O)ccc2N[C@H]2CC[C@H](NCc3ccc(F)cc3F)CC2)c2cc[nH]c2c1=O` [Example 109, 4-[2-({trans-4-[(2,4-difluorobenzyl)amino]cyclohexyl}amino)-5-(methylsulfonyl)phenyl]-6-methyl-1,6-dihydro-7H-pyrrolo[2,3-c]pyridin-7-one]: the Ki stood at 8.3 nM on BRD4 (BDII_E352-M457) and 1.6 nM on BRD4 (BDI_K57-E168).

Take `Cn1cc(-c2cc(S(C)(=O)=O)ccc2N[C@H]2CC[C@H](NCc3ccc(Cl)cc3)CC2)c2cc[nH]c2c1=O` [Example 113, 4-[2-({trans-4-[(4-chlorobenzyl)amino]cyclohexyl}amino)-5-(methylsulfonyl)phenyl]-6-methyl-1,6-dihydro-7H-pyrrolo[2,3-c]pyridin-7-one]: the Ki at BRD4 (BDII_E352-M457) was 7 nM; at BRD4 (BDI_K57-E168), 2.5 nM.

`CN(C)C(=O)C1(N2CCCC2=O)CCN(Cc2cc3c(-c4cc(S(C)(=O)=O)ccc4Oc4ccc(F)cc4F)cn(C)c(=O)c3[nH]2)CC1` [Example 155, 1-({4-[2-(2,4-difluorophenoxy)-5-(methylsulfonyl)phenyl]-6-methyl-7-oxo-6,7-dihydro-1H-pyrrolo[2,3-c]pyridin-2-yl}methyl)-N,N-dimethyl-4-(2-oxopyrrolidin-1-yl)piperidine-4-carboxamide]: the Ki on BRD4 (BDII_E352-M457) amounted to 364 nM; on BRD4 (BDI_K57-E168), 23.7 nM.

Turning to `COc1ccc(CNc2cccc(Oc3ccc(S(C)(=O)=O)cc3-c3cn(C)c(=O)c4[nH]ccc34)c2)cc1` [Example 79, 4-[2-{3-[(4-methoxybenzyl)amino]phenoxy}-5-(methylsulfonyl)phenyl]-6-methyl-1,6-dihydro-7H-pyrrolo[2,3-c]pyridin-7-one], the Ki worked out at 2.7 nM at BRD4 (BDII_E352-M457) and 7.8 nM on BRD4 (BDI_K57-E168).

As for `CCNC(=O)c1cc2c(-c3ccc(C(=O)N(CCN4CCSCC4)c4ccc(Cl)c(Cl)c4)cc3Oc3c(C)cccc3C)cn(C)c(=O)c2[nH]1` [Example 162, 4-[4-{(3,4-dichlorophenyl)[2-(thiomorpholin-4-yl)ethyl]carbamoyl}-2-(2,6-dimethylphenoxy)phenyl]-N-ethyl-6-methyl-7-oxo-6,7-dihydro-1H-pyrrolo[2,3-c]pyridine-2-carboxamide], the Ki at BRD4 (BDII_E352-M457) is 88.6 nM; at BRD4 (BDI_K57-E168), > 12700 nM.

Take `CCS(=O)(=O)Nc1cc(-c2cn(C)c(=O)c3[nH]ccc23)c(Oc2ccc(F)cc2F)cc1CO` [Example 6, N-[4-(2,4-difluorophenoxy)-2-(hydroxymethyl)-5-(6-methyl-7-oxo-6,7-dihydro-1H-pyrrolo[2,3-c]pyridin-4-yl)phenyl]ethanesulfonamide]: the figures for the Ki on BRD4 (BDII_E352-M457) and on BRD4 (BDI_K57-E168) were 2 nM and 14 nM, respectively.

As for `COc1ccc(CCC(=O)N2CCC(Nc3ccc(S(C)(=O)=O)cc3-c3cn(C)c(=O)c4[nH]ccc34)CC2)c(OC)c1OC` [Example 92, 6-methyl-4-[5-(methylsulfonyl)-2-({1-[3-(2,3,4-trimethoxyphenyl)propanoyl]piperidin-4-yl}amino)phenyl]-1,6-dihydro-7H-pyrrolo[2,3-c]pyridin-7-one], the values for the Ki on BRD4 (BDII_E352-M457) and on BRD4 (BDI_K57-E168) were 33 nM and 15 nM, respectively.

`CC(C)c1ccc(S(=O)(=O)Nc2cccc(Oc3ccc(S(C)(=O)=O)cc3-c3cn(C)c(=O)c4[nH]ccc34)c2)cc1` [Example 46, N-{3-[2-(6-methyl-7-oxo-6,7-dihydro-1H-pyrrolo[2,3-c]pyridin-4-yl)-4-(methylsulfonyl)phenoxy]phenyl}-4-(propan-2-yl)benzenesulfonamide]: the Ki on BRD4 (BDII_E352-M457) turned out to be 1.8 nM; on BRD4 (BDI_K57-E168) it was 10 nM.

Turning to `CN1CCC(N2CCN(Cc3cc4c(-c5cc(S(C)(=O)=O)ccc5Oc5ccc(F)cc5F)cn(C)c(=O)c4[nH]3)CC2)CC1` [Example 125, 4-[2-(2,4-difluorophenoxy)-5-(methylsulfonyl)phenyl]-6-methyl-2-{[4-(1-methylpiperidin-4-yl)piperazin-1-yl]methyl}-1,6-dihydro-7H-pyrrolo[2,3-c]pyridin-7-one], the Ki at BRD4 (BDII_E352-M457) was 189 nM; on BRD4 (BDI_K57-E168) it was 8.47 nM.

As for `CCS(=O)(=O)Nc1cc(-c2cn(C)c(=O)c3[nH]ccc23)c(Oc2ccc(F)cc2F)cc1CNC1CCCC1` [Example 7, N-{2-[(cyclopentylamino)methyl]-4-(2,4-difluorophenoxy)-5-(6-methyl-7-oxo-6,7-dihydro-1H-pyrrolo[2,3-c]pyridin-4-yl)phenyl}ethanesulfonamide], the Ki at BRD4 (BDII_E352-M457) turned out to be 6.9 nM; at BRD4 (BDI_K57-E168), 32 nM.

With `Cn1cc(-c2cc(S(C)(=O)=O)ccc2Oc2cccc(NCc3ccc(F)cc3Cl)c2)c2cc[nH]c2c1=O` [Example 72, 4-[2-{3-[(2-chloro-4-fluorobenzyl)amino]phenoxy}-5-(methylsulfonyl)phenyl]-6-methyl-1,6-dihydro-7H-pyrrolo[2,3-c]pyridin-7-one], the Ki came out at 4.1 nM at BRD4 (BDII_E352-M457) and 7.4 nM on BRD4 (BDI_K57-E168).

For `CCS(=O)(=O)Nc1cc(-c2cn(C)c(=O)c3[nH]ccc23)c(Oc2ccc(F)cc2F)cc1C(=O)N(C)C` [Example 10, 5-(2,4-difluorophenoxy)-2-[(ethylsulfonyl)amino]-N,N-dimethyl-4-(6-methyl-7-oxo-6,7-dihydro-1H-pyrrolo[2,3-c]pyridin-4-yl)benzamide], the Ki came out at 8.3 nM at BRD4 (BDII_E352-M457) and 72 nM at BRD4 (BDI_K57-E168).

`Cn1cc(-c2cc(S(C)(=O)=O)ccc2Oc2cccc(NS(=O)(=O)c3ccc(C#N)cc3)c2)c2cc[nH]c2c1=O` [Example 56, 4-cyano-N-{3-[2-(6-methyl-7-oxo-6,7-dihydro-1H-pyrrolo[2,3-c]pyridin-4-yl)-4-(methylsulfonyl)phenoxy]phenyl}benzenesulfonamide]: the Ki stood at 3.4 nM on BRD4 (BDII_E352-M457) and 8.8 nM on BRD4 (BDI_K57-E168).

`CCS(=O)(=O)Nc1cc(-c2cn(C)c(=O)c3[nH]ccc23)c(Oc2ccc(F)cc2F)cc1C(=O)NC1CCOCC1` [Example 12, 5-(2,4-difluorophenoxy)-2-[(ethylsulfonyl)amino]-4-(6-methyl-7-oxo-6,7-dihydro-1H-pyrrolo[2,3-c]pyridin-4-yl)-N-(tetrahydro-2H-pyran-4-yl)benzamide]: the Ki on BRD4 (BDII_E352-M457) worked out at 1.6 nM; on BRD4 (BDI_K57-E168), 1.8 nM.

As to `Cn1cc(-c2cc(S(C)(=O)=O)ccc2Oc2cccc(NCc3cccc(OC(F)(F)F)c3)c2)c2cc[nH]c2c1=O` [Example 69, 6-methyl-4-[5-(methylsulfonyl)-2-(3-{[3-(trifluoromethoxy)benzyl]amino}phenoxy)phenyl]-1,6-dihydro-7H-pyrrolo[2,3-c]pyridin-7-one], the Ki on BRD4 (BDII_E352-M457) amounted to 1.6 nM; at BRD4 (BDI_K57-E168) it was 4.1 nM.
